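Each compound was tested at five concentrations against cells in 96-well plates for 48 hours. TGI is the concentration that stops growth completely.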
How the values were obtained:
Experiment in all cases: NCI-60 cell line screen, 48 h
[1] = system: KM12 colon
[2] = system: OVCAR-8 ovarian
[3] = system: SK-MEL-2 melanoma
[4] = system: A498 renal
[5] = system: A549 NSCLC
[6] = system: HCC-2998 colon
[7] = system: CAKI-1 renal
[8] = system: MDA-N
[9] = system: SK-MEL-28 melanoma
[10] = system: SF-295 CNS
[11] = system: 786-0 renal
[12] = system: NCI-H23 lung
[13] = system: MALME-3M melanoma
[14] = system: HOP-62 NSCLC
[15] = system: UACC-62 melanoma
[16] = system: UACC-257 melanoma
[17] = system: CCRF-CEM leukemia
[18] = system: BT-549 breast
[19] = system: IGROV1 ovarian
[20] = system: HCT-15 colon
[21] = system: OVCAR-4 ovarian
[22] = system: COLO 205 colon
[23] = system: HT29 colon
[24] = system: T-47D breast
[25] = system: NCI-H460 lung
[26] = system: NCI-H522 lung
[27] = system: HCT-116 colon
[28] = system: MOLT-4 leukemia
[29] = system: SK-OV-3 ovarian
[30] = system: MDA-MB-231 breast
[31] = system: HL-60(TB) leukemia
[32] = system: ACHN renal
[33] = system: SW-620 colon
[34] = system: HOP-92 NSCLC
[35] = system: EKVX NSCLC
[36] = system: OVCAR-5 ovarian
[37] = system: NCI/ADR-RES ovarian
[38] = system: SK-MEL-5 melanoma
[39] = system: SF-268 CNS
[40] = system: RXF 393 renal
[41] = system: LOX IMVI melanoma
[42] = system: UO-31 renal
[43] = system: MDA-MB-435
[44] = system: SF-539 CNS
[45] = system: U251 CNS
[46] = system: HS 578T breast
[47] = system: TK-10 renal
[48] = system: OVCAR-3 ovarian
[49] = system: MCF7 breast
[50] = system: RPMI-8226 leukemia
[51] = system: M14 melanoma
[52] = system: PC-3 prostate
[53] = system: DU-145 prostate
[54] = system: K-562 leukemia
[55] = system: SNB-19 CNS
[56] = system: SNB-75 CNS
[57] = system: SN12C renal
[58] = system: SR leukemia
[59] = system: NCI-H226 lung

In the case of OC(c1ccc(Br)cc1)(c1cccs1)C1CC1 (configuration not stated), the TGI [1] is reported as 35.3 µM, the TGI [2] is reported as 54.1 µM and the TGI [3] is reported as 40.4 µM. The TGI [4] was 45.2 µM, the TGI [5] was over 100 µM and the TGI [6] was 55.6 µM. The TGI [7] was 69.6 µM, the TGI [8] was 41.8 µM and the TGI [9] was 51.3 µM. The TGI [10] was 44.6 µM, the TGI [11] was 36 µM and the TGI [12] was 56.9 µM. It also gave a TGI [13] of 41.5 µM, a TGI [14] of 47.2 µM and a TGI [15] of 33.3 µM. It also gave a TGI [16] of 71.3 µM, a TGI [17] of 91.8 µM and a TGI [18] of 58.2 µM. It also gave a TGI [19] of 42.9 µM, a TGI [20] of 65.7 µM and a TGI [21] of 66.7 µM. The TGI [22] was 36.6 µM, the TGI [23] was 68 µM and the TGI [24] was 88.5 µM. The TGI [25] was 57.8 µM, the TGI [26] was 40.9 µM and the TGI [27] was 33.3 µM. The TGI [28] was 67 µM, the TGI [29] was over 100 µM and the TGI [30] was 39.6 µM. It also gave a TGI [31] of 52.7 µM, a TGI [32] of 76.3 µM and a TGI [33] of 87.5 µM. The TGI [34] was 37.7 µM, the TGI [35] was over 100 µM and the TGI [36] was 70.5 µM. It also gave a TGI [37] of 60.5 µM, a TGI [38] of 33 µM and a TGI [39] of 45.4 µM. The TGI [40] was 39.1 µM, the TGI [41] was 42.4 µM and the TGI [42] was 48.1 µM. It also gave a TGI [43] of 36.1 µM, a TGI [44] of 45.9 µM and a TGI [45] of 35.4 µM. It also gave a TGI [46] of 49.5 µM, a TGI [47] of 76.4 µM and a TGI [48] of 35.9 µM. For the same molecule, the TGI [49] was 72.6 µM, the TGI [50] was 54.7 µM and the TGI [51] was 45.3 µM. It also gave a TGI [52] of 52.8 µM, a TGI [53] of 81.6 µM and a TGI [54] of over 100 µM. The TGI [55] was over 100 µM and the TGI [56] was 66.2 µM.

COc1cc(C2SCC(=O)N2c2ccc(NC(=O)c3ccc(N4C(=O)CSC4c4cc(OC)c(OC)c(OC)c4)cc3)cc2)cc(OC)c1OC (configuration not stated) was tested, and the TGI [1] was over 100 µM, the TGI [2] was over 100 µM and the TGI [3] was over 100 µM. It also gave a TGI [5] of over 100 µM, a TGI [6] of over 100 µM and a TGI [7] of over 100 µM. It also gave a TGI [8] of 64 µM, a TGI [9] of over 100 µM and a TGI [10] of over 100 µM. The TGI [11] was over 100 µM, the TGI [12] was over 100 µM and the TGI [13] was over 100 µM. The TGI [14] was over 100 µM, the TGI [15] was 76.6 µM and the TGI [16] was over 100 µM. It also gave a TGI [17] of over 100 µM, a TGI [18] of over 100 µM and a TGI [19] of over 100 µM. It also gave a TGI [20] of over 100 µM, a TGI [21] of over 100 µM and a TGI [22] of over 100 µM. For the same molecule, the TGI [23] was over 100 µM, the TGI [24] was over 100 µM and the TGI [25] was over 100 µM. The TGI [26] was over 100 µM, the TGI [27] was over 100 µM and the TGI [28] was over 100 µM. The TGI [29] was over 100 µM, the TGI [30] was over 100 µM and the TGI [32] was over 100 µM. For the same molecule, the TGI [33] was over 100 µM, the TGI [34] was 79.1 µM and the TGI [35] was over 100 µM. For the same molecule, the TGI [36] was over 100 µM, the TGI [37] was 70.6 µM and the TGI [38] was over 100 µM. It also gave a TGI [39] of over 100 µM, a TGI [40] of over 100 µM and a TGI [41] of over 100 µM. For the same molecule, the TGI [42] was over 100 µM, the TGI [43] was 61.4 µM and the TGI [44] was over 100 µM. The TGI [45] was over 100 µM, the TGI [46] was over 100 µM and the TGI [57] was over 100 µM. The TGI [47] was over 100 µM, the TGI [48] was over 100 µM and the TGI [49] was over 100 µM. The TGI [50] was over 100 µM, the TGI [51] was over 100 µM and the TGI [52] was over 100 µM. For the same molecule, the TGI [53] was over 100 µM, the TGI [54] was over 100 µM and the TGI [55] was over 100 µM. For the same molecule, the TGI [56] was over 100 µM.

For Cc1cc2[nH]c3[nH]c(=O)[nH]c(=O)c3c2cc1C, the TGI [1] was over 100 µM, the TGI [2] was over 100 µM and the TGI [3] was over 100 µM. For the same molecule, the TGI [4] was over 100 µM, the TGI [58] was over 100 µM and the TGI [5] was over 100 µM. It also gave a TGI [6] of over 100 µM, a TGI [7] of over 100 µM and a TGI [8] of over 100 µM. It also gave a TGI [10] of over 100 µM, a TGI [11] of over 100 µM and a TGI [12] of over 100 µM. It also gave a TGI [13] of over 100 µM, a TGI [14] of over 100 µM and a TGI [15] of over 100 µM. For the same molecule, the TGI [16] was over 100 µM, the TGI [17] was over 100 µM and the TGI [18] was over 100 µM. For the same molecule, the TGI [19] was over 100 µM, the TGI [20] was over 100 µM and the TGI [22] was over 100 µM. The TGI [23] was over 100 µM, the TGI [24] was over 100 µM and the TGI [26] was over 100 µM. For the same molecule, the TGI [27] was over 100 µM, the TGI [29] was over 100 µM and the TGI [30] was over 100 µM. It also gave a TGI [32] of over 100 µM, a TGI [33] of over 100 µM and a TGI [59] of over 100 µM. The TGI [34] was over 100 µM, the TGI [35] was over 100 µM and the TGI [36] was over 100 µM. For the same molecule, the TGI [37] was over 100 µM, the TGI [38] was over 100 µM and the TGI [39] was over 100 µM. The TGI [40] was over 100 µM, the TGI [41] was over 100 µM and the TGI [42] was over 100 µM. The TGI [43] was over 100 µM, the TGI [44] was over 100 µM and the TGI [46] was over 100 µM. It also gave a TGI [57] of over 100 µM, a TGI [47] of over 100 µM and a TGI [49] of over 100 µM. For the same molecule, the TGI [50] was over 100 µM, the TGI [51] was over 100 µM and the TGI [53] was over 100 µM. The TGI [55] was over 100 µM and the TGI [56] was over 100 µM.

CN(C)Cc1cc(C(=O)/C=C/c2ccc(O)cc2)cc(CN(C)C)c1O was tested, and the TGI [1] was over 100 µM, the TGI [2] was over 100 µM and the TGI [3] was over 100 µM. For the same molecule, the TGI [4] was over 100 µM, the TGI [58] was 69.5 µM and the TGI [5] was over 100 µM. It also gave a TGI [6] of over 100 µM, a TGI [7] of over 100 µM and a TGI [8] of over 100 µM. For the same molecule, the TGI [9] was over 100 µM, the TGI [10] was over 100 µM and the TGI [11] was over 100 µM. For the same molecule, the TGI [12] was over 100 µM, the TGI [14] was over 100 µM and the TGI [15] was over 100 µM. The TGI [16] was over 100 µM, the TGI [17] was 88.3 µM and the TGI [18] was over 100 µM. For the same molecule, the TGI [19] was over 100 µM, the TGI [20] was over 100 µM and the TGI [22] was 33.9 µM. The TGI [23] was over 100 µM, the TGI [24] was over 100 µM and the TGI [25] was over 100 µM. It also gave a TGI [26] of 75.6 µM, a TGI [27] of over 100 µM and a TGI [28] of over 100 µM. For the same molecule, the TGI [30] was 79 µM, the TGI [31] was 49.9 µM and the TGI [32] was 53.3 µM. It also gave a TGI [33] of over 100 µM, a TGI [59] of over 100 µM and a TGI [34] of over 100 µM. For the same molecule, the TGI [35] was over 100 µM, the TGI [36] was over 100 µM and the TGI [37] was over 100 µM. For the same molecule, the TGI [38] was 38.5 µM, the TGI [39] was over 100 µM and the TGI [40] was over 100 µM. The TGI [41] was over 100 µM, the TGI [42] was over 100 µM and the TGI [43] was over 100 µM. It also gave a TGI [44] of over 100 µM, a TGI [45] of 32.2 µM and a TGI [46] of over 100 µM. For the same molecule, the TGI [57] was 60.1 µM, the TGI [47] was over 100 µM and the TGI [48] was 56.2 µM. For the same molecule, the TGI [49] was over 100 µM, the TGI [50] was 49.8 µM and the TGI [51] was over 100 µM. It also gave a TGI [52] of over 100 µM, a TGI [53] of over 100 µM and a TGI [54] of over 100 µM. The TGI [55] was over 100 µM and the TGI [56] was 86.3 µM.

— PubChem BioAssay (NCI)
